From ChEMBL document CHEMBL1147799, “An integrated in silico 3D model-driven discovery of a novel, potent, and selective amidosulfonamide 5-HT1A agonist (PRX-00023) for the treatment of anxiety and depression” (J Med Chem, 2006) come the findings set out here.

Series [1] has as its target T1, Adrenergic receptor alpha-1 (Rattus norvegicus, UniProt P15823+P23944+P43140).
T1 sequence (P15823 whole entry): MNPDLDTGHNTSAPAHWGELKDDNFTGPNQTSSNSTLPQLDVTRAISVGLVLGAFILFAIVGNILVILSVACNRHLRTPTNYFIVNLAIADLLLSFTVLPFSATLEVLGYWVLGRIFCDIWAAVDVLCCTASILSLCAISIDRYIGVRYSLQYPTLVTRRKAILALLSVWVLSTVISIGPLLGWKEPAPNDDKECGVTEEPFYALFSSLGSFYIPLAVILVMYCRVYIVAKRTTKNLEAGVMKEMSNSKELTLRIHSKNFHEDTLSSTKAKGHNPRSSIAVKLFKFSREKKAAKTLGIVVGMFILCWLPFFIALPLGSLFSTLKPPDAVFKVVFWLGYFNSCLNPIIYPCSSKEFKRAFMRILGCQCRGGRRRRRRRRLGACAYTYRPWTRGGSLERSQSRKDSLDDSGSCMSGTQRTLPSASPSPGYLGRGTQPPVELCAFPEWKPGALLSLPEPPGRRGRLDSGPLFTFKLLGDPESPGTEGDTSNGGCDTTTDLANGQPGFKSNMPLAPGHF
T1 sequence (P23944 whole entry): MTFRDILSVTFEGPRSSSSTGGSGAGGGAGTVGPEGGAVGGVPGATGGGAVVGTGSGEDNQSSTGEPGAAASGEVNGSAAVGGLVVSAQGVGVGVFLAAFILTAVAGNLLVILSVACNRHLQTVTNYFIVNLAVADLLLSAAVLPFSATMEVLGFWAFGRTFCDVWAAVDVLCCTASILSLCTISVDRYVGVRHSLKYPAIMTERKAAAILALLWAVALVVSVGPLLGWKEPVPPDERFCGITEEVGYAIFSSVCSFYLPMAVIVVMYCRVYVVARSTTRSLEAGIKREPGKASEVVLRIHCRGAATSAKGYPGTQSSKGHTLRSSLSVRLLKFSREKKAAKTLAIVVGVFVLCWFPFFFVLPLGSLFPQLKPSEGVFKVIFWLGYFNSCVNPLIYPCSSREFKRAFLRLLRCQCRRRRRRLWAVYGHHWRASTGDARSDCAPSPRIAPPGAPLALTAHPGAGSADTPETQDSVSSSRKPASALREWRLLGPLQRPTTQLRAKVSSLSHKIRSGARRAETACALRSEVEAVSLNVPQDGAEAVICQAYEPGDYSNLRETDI
T1 sequence (P43140 whole entry): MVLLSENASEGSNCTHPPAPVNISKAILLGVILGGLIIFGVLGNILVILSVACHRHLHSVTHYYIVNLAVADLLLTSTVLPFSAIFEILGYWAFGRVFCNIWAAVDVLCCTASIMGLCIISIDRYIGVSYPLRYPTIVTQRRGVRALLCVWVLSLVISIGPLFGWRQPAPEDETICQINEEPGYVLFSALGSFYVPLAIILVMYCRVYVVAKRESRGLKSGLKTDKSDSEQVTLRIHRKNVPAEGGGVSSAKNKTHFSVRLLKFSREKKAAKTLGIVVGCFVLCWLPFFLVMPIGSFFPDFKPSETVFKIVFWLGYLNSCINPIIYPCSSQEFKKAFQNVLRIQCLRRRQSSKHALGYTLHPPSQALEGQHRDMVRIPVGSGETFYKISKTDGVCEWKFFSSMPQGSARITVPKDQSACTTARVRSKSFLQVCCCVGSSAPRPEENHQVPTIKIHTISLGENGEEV
Briefly: Displacement of [3H]prazosin from adrenergic alpha-1 receptor in rat cerebral cortex cells. It counts as cell-based. Background: Displacement assays read how much labelled ligand stays bound in the presence of the test substance.

Series [2] addresses 5-hydroxytryptamine receptor 7 (Homo sapiens, UniProt P34969).
Description: Binding affinity to 5HT7 receptor by radioligand binding assay
The target in series [3] is Alpha-2A adrenergic receptor (Rattus norvegicus, UniProt P22909). Briefly: Displacement of [3H]RX 821002 from Adrenergic alpha-2a receptor in rat cerebral cortex cells. It is filed as cell-based.
Series [4] deals with 5-hydroxytryptamine receptor 2A (Homo sapiens, UniProt P28223).
5-hydroxytryptamine receptor 2A, sequence (P28223 whole entry): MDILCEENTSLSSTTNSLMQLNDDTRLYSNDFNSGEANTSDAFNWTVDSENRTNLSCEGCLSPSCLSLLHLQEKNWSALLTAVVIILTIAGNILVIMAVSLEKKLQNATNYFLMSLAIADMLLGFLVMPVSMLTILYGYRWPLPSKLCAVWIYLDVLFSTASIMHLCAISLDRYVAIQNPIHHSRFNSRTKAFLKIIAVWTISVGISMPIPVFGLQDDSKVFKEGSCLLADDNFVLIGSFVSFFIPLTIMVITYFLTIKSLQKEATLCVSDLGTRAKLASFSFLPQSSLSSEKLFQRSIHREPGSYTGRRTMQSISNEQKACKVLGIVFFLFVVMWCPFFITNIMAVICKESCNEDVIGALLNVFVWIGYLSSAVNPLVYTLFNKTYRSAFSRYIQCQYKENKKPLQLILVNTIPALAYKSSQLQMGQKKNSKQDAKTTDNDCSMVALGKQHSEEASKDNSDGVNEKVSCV
Description: Binding affinity to 5HT2A receptor by radioligand binding assay
Series [5] has as its target Sodium-dependent serotonin transporter (Homo sapiens, UniProt P31645). Briefly: Binding affinity to 5HT transporter by radioligand binding assay.
In series [6] the target is T2, 5-hydroxytryptamine receptor 1A (Homo sapiens) (UniProt P08908).
T2 sequence (whole entry): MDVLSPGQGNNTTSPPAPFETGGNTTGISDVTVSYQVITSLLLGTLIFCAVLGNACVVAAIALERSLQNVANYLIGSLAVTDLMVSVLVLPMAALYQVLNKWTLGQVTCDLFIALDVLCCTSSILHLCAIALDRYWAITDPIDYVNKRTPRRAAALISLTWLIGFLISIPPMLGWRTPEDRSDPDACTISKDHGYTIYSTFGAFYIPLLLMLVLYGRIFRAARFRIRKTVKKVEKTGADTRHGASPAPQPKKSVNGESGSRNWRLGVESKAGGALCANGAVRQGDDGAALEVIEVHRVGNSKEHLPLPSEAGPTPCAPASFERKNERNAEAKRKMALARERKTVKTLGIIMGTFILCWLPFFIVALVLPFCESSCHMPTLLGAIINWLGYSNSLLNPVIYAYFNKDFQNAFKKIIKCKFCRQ
Nature of the series: Activity against 5HT1A receptor relative to 5-HT by Gi-[35S]GTP-gamma-S binding assay. It is filed as functional. (Binding of GTPγS marks nucleotide exchange on a G protein.)

The nature of series [7]: Half life in Sprague-Dawley rat at 3 mg/kg, po. It is filed as ADME, organism-based. The arrangement: dose 3 mg/kg, route oral. The following applies: in vivo.
For series [8], the target named is T3, 5-hydroxytryptamine receptor 1A (Homo sapiens, UniProt P08908).
T3 sequence (P08908 whole entry): T2 sequence (whole entry)
Nature of the series: Displacement of [3H]8-OH-DPAT from human 5HT1A receptor in HEK293 cells.

A short description of series [9]: Oral bioavailability in Sprague-Dawley rat at 3 mg/kg, po and 1 mg/kg, iv. The following applies: in vivo. It counts as ADME, organism-based.
The target in series [10] is T3, 5-hydroxytryptamine receptor 1A. Briefly: Activity against 5HT1A receptor by Gi-[35S]GTP-gamma-S binding assay. It counts as functional.
The target in series [11] is 5-hydroxytryptamine receptor 2B (Homo sapiens, UniProt P41595). Nature of the series: Binding affinity to 5HT2B receptor by radioligand binding assay.
5-hydroxytryptamine receptor 2B, sequence (P41595 whole entry): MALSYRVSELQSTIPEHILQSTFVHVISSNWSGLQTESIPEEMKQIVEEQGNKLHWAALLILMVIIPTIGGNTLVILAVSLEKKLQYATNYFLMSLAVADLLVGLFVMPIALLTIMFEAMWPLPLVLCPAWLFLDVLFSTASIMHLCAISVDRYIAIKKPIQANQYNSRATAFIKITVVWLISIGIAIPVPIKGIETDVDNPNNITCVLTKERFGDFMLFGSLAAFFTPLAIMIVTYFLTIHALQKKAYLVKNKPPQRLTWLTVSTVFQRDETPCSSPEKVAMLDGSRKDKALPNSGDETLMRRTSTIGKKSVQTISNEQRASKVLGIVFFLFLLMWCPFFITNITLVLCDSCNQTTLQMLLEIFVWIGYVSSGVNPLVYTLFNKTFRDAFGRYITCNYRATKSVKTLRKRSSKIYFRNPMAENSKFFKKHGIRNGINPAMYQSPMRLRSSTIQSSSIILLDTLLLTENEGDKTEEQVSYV
The target of series [12] is Cytochrome P450 2D6 (Homo sapiens, UniProt P10635). Nature of the series: Inhibition of human recombinant cytochrome P450 2D6. It is filed as ADME. The following applies: recombinant enzyme.
Series [13] in a line: Oral bioavailability in Beagle dog at 3 mg/kg, po and 1 mg/kg, iv. It is filed as ADME, organism-based, Canis lupus familiaris. The settings on record: in vivo.
Series [14] addresses D(2) dopamine receptor (Homo sapiens, UniProt P14416). Nature of the series: Binding affinity to D2 receptor by radioligand binding assay.
A short description of series [15]: Cmax in Beagle dog at 3 mg/kg, po. It is filed as ADME, organism-based, Canis lupus familiaris. Also noted: dose 3 mg/kg, route oral. The settings on record: in vivo.
The nature of series [16]: Half life in human liver microsome at 5 uM. It counts as ADME. The settings on record: liver microsomes. A general note: Liver microsomes are vesicles of endoplasmic reticulum, rich in cytochrome P450 enzymes.
The target of series [17] is Cytochrome P450 3A4 (Homo sapiens, UniProt P08684). Briefly: Inhibition of human recombinant cytochrome P450 3A4. It is filed as ADME. The following applies: recombinant enzyme.
Cytochrome P450 3A4, sequence (P08684 whole entry): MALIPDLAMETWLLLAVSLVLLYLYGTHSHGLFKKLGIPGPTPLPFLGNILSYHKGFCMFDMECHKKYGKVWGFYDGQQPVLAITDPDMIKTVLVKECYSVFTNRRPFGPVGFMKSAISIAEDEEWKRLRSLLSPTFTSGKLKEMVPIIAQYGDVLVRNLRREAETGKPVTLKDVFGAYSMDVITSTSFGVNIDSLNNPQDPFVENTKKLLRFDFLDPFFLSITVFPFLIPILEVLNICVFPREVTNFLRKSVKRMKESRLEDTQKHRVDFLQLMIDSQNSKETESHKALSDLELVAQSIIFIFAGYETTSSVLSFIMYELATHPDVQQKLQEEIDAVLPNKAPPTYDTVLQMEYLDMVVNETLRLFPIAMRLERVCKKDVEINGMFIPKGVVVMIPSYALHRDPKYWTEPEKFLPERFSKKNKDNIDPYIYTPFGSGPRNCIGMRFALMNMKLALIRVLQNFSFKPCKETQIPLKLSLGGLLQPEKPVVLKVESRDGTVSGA
Series [18] addresses Cytochrome P450 2C19 (Homo sapiens, UniProt P33261). Briefly: Inhibition of human recombinant cytochrome P450 2C19. It counts as ADME. The settings on record: recombinant enzyme.
Series [19] addresses Cytochrome P450 1A2 (Homo sapiens, UniProt P05177). Nature of the series: Inhibition of human recombinant cytochrome P450 1A2. The following applies: recombinant enzyme. It counts as ADME.
The nature of series [20]: Half life in Beagle dog at 3 mg/kg, po. The settings on record: in vivo. Also noted: dose 3 mg/kg, route oral. It counts as ADME, organism-based, Canis lupus familiaris.
Series [21] has as its target T4, Alpha-2A adrenergic receptor (Rattus norvegicus) (UniProt P22909).
T4 sequence (whole entry): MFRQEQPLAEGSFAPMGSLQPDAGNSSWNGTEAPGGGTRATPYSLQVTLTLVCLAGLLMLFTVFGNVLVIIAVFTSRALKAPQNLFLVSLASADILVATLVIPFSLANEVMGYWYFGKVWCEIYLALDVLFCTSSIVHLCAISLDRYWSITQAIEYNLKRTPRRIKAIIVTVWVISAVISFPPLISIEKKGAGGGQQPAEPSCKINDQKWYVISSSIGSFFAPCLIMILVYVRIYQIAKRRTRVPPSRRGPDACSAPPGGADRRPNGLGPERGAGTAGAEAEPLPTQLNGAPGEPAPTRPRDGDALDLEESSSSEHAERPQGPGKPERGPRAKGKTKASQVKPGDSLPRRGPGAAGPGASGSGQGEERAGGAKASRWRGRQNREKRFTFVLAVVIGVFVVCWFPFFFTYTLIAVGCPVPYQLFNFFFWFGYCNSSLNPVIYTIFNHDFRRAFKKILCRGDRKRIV
Nature of the series: Displacement of [3H]RX 821002 from Adrenergic alpha-2a receptor in rat cerebral cortex cells at 1 uM. It counts as cell-based.

Series [22] has as its target Cytochrome P450 2C9 (Homo sapiens, UniProt P11712). Briefly: Inhibition of human recombinant cytochrome P450 2C9. It counts as ADME. The following applies: recombinant enzyme.
Series [23] in a line: Cmax in Sprague-Dawley rat at 3 mg/kg, po. It counts as ADME, organism-based. The arrangement: dose 3 mg/kg, route oral. The following applies: in vivo.
Series [24] has as its target Adrenergic receptor alpha-1 (Rattus norvegicus) (UniProt P15823+P23944+P43140). Briefly: Displacement of [3H]prazosin from Adrenergic alpha-1 receptor in rat cerebral cortex cells at 1 uM. It is filed as cell-based.
Series [25] can be described thus: Protein binding in human serum at 2 uM. The settings on record: read-out: PPB (converted). It is filed as ADME, organism-based.
Series [26] addresses Dopamine D2 receptor and serotonin 1a receptor (Homo sapiens) (UniProt P14416+P08908). Nature of the series: Selectivity for D2 receptor over 5HT1A receptor. It is filed as protein assay.
Series [27] is described as follows: Elimination half life in human. It counts as ADME, organism-based. The settings on record: in vivo.
Series [28] is described as follows: Selectivity for adrenergic alpha-1 receptor over 5HT1A receptor.

pEC50, pKi: −log10 of the molar value.

D(2) dopamine receptor, sequence (P14416 whole entry): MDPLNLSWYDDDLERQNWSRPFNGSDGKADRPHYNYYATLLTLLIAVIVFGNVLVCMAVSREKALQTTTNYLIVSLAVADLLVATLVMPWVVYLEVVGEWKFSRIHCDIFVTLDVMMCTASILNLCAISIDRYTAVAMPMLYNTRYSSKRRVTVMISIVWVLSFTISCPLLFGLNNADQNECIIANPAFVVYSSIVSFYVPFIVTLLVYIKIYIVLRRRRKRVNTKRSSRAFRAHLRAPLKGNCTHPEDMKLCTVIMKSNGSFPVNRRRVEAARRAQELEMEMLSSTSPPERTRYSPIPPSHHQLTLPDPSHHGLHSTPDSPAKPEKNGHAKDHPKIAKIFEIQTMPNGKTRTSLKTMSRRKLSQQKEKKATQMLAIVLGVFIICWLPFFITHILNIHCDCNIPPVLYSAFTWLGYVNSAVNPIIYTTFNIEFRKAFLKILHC
5-hydroxytryptamine receptor 7, sequence (P34969 whole entry): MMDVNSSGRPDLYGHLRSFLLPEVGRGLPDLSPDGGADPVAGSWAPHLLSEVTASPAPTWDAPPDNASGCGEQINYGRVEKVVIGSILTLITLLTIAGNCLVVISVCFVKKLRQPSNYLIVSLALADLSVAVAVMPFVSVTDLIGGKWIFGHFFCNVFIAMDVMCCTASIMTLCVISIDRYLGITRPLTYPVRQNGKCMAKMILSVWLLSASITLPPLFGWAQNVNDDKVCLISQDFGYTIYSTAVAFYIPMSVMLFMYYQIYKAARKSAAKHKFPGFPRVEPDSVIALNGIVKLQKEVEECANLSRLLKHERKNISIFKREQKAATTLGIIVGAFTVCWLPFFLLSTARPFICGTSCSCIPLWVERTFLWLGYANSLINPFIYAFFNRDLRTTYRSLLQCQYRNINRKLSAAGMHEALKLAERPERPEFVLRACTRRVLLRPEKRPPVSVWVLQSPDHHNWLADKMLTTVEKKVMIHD
Cytochrome P450 1A2, sequence (P05177 whole entry): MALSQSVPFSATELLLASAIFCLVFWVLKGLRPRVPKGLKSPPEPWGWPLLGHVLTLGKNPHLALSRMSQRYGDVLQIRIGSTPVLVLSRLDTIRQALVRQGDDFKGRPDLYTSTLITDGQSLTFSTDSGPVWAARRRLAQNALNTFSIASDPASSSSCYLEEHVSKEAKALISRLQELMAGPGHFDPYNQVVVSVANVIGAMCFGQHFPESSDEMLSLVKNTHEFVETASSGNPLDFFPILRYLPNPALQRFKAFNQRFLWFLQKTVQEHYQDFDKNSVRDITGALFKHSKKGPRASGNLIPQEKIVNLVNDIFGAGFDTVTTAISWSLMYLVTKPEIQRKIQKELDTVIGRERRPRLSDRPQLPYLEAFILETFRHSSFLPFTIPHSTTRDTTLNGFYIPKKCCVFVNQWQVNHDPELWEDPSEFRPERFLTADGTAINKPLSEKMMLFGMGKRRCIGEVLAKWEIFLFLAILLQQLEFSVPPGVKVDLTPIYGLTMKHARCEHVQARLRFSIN
Cytochrome P450 2C19, sequence (P33261 whole entry): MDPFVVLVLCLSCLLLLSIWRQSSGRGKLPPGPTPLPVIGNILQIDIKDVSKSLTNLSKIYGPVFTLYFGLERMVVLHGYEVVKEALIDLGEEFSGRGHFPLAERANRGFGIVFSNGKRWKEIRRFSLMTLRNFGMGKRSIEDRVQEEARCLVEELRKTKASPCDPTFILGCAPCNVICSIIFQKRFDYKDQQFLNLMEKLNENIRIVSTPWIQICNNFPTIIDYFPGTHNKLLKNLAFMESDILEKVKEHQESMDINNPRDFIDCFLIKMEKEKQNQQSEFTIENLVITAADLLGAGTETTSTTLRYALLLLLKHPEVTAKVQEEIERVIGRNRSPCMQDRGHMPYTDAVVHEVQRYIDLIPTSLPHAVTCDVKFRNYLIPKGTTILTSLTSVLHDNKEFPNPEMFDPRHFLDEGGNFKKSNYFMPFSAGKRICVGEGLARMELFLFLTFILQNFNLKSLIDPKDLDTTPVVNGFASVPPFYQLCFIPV
Cytochrome P450 2C9, sequence (P11712 whole entry): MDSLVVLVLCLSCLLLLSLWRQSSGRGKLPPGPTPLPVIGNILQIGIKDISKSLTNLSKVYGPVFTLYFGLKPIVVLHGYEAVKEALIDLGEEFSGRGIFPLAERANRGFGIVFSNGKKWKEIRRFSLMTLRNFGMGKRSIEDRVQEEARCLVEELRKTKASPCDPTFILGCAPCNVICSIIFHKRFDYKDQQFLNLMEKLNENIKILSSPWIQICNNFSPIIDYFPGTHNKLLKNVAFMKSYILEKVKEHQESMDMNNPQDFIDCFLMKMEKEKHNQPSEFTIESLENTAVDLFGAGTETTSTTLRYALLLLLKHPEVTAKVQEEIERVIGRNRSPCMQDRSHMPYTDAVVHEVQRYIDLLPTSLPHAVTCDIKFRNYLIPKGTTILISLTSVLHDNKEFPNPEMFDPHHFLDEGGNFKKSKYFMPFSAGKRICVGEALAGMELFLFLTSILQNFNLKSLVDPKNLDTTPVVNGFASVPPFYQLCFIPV
Sodium-dependent serotonin transporter, sequence (P31645 whole entry): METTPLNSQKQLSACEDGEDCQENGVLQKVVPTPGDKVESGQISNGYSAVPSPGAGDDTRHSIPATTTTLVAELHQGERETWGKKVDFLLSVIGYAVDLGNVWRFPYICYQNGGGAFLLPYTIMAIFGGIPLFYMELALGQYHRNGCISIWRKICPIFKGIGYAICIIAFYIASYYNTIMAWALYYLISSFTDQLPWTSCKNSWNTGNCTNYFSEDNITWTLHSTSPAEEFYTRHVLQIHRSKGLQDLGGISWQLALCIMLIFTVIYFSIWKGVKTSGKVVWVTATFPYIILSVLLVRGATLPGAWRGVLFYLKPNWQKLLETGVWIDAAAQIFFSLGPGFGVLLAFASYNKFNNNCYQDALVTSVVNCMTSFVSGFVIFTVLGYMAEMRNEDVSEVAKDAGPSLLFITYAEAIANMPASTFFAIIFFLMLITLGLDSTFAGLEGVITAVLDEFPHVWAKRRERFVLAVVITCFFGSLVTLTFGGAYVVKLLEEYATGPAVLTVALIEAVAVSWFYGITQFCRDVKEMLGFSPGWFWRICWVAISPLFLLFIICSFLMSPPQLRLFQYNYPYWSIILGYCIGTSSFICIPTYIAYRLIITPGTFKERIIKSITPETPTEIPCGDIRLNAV
Dopamine D2 receptor and serotonin 1a receptor (Homo sapiens), sequence (P14416 whole entry, looked up, one chain of several): as the sequence (P14416 whole entry) above

As to `COc1ccccc1N1CCN(CCCCNS(=O)(=O)c2ccc(C)cc2)CC1`, the Ki (in general, a measure of affinity in units of concentration, obtained from inhibition or displacement) in series [1] turned out to be 6 nM. Besides, the pKi (as a rule, the Ki on a negative log10 scale, so that one unit is a factor of ten) in series [2] was 7.52; in [3], 7.92; in series [4] it was 6.31; in series [5], 6.70; in [8], 9.00; in series [11] it was 7.28. This molecule registered an Activity in [6] of 65%. In [7], the half-life (in general, how long it takes for the measured level to halve) is 60 min. The bioavailability (in general, dose-corrected exposure relative to a reference, in per cent) in [9] is 2%. The pEC50 (in general, the negative decadic logarithm of the EC50, by convention in mol/L) in series [10] is 7.68.

On to `CC(=O)Nc1cccc(N2CCN(CCCCNS(=O)(=O)CC(C)C)CC2)c1`, for which the Inhibition result in series [12], in series [17], in series [18], in [19] and in series [22] was “Not Active” throughout. In [1], this molecule registered a Ki greater than 5000 nM. The results for the bioavailability in series [13] and in series [9] were greater than 80% and 50%, respectively. The figures for the pKi in [14] and in [8] were less than 5.30 and 8.04, respectively. For the same molecule, the Cmax (in general, the highest concentration seen after dosing) in series [15] was determined as 600 ng/mL; in series [23] it was 350 ng/mL. The molecule further came in with a half-life at 5 µM in series [16] greater than 90 min. In addition, the results for the half-life in series [7] and in series [20] were 210 min and 144 min, respectively. In addition, the Activity in series [21] came out at 0%; in series [24], 5%. Besides, the pEC50 in series [10] is 7.22. The fraction unbound at 2 µM in [25] was 0.43.

In the case of `O=C1c2ccccc2S(=O)(=O)N1CCCCN1CCN(c2ncccn2)CC1` [IPSAPIRONE], the Ratio Ki in series [26] worked out at 18; in series [28], 38. This molecule also displayed a Ki in [1] of 229 nM. For the same molecule, the pKi in series [14] was 6.96; in series [8], 8.22. In series [27], the half-life was 120 min.
